According to article PMC9863297, “Intermolecular Interactions of Edaravone in Aqueous Solutions of Ethaline and Glyceline Inferred from Experiments and Quantum Chemistry Computations” (Molecules, 2023):
In brackets after ≈: the same amount, converted by molar mass. Like-named read-outs stand apart in the source and are kept apart here.

Assay: Edaravone solubility, slurry/shake-flask method with spectrophotometric determination at 243 nm
Type: physicochemical
Conditions: for solubility at 24 h: read-out: cE solubility concentration; for volume of saturated solution containing the recommended 60 mg: solubility at 298.15 K
Experimental: The first step in obtaining a calibration curve was the preparation of a stock solution of edaravone with a concentration of 2.3 mg/mL. This initial solution was successfully diluted in 10 mL volumetric flasks with methanol and the obtained solutions with decreasing concentrations were measured spectrophotometrically. […] Three separate curves were obtained, and the final curve resulted from averaging. […] The limits of detection (LOD) and quantification (LOQ) were calculated as 5.899∙10^−4 mg/mL and 1.770∙10^−3 mg/mL, respectively.
All of the studied deep eutectic solvents included choline chloride, while the second constituent was either glycerol or ethylene glycol. In order to prepare a DES formulation, choline chloride was mixed with the second compound in different molar ratios in sealed test tubes and placed in a water bath at 363.15 K until the formation of a uniform solution. The obtained DES were either used in their neat form or water was added to them in different proportions in order to form binary systems.
During the next stage, edaravone was added in excess amounts to the test tubes containing both neat DES and binary mixtures, which enabled us to obtain its saturated solutions. Samples prepared in such a manner were placed in an Orbital Shaker Incubator ES-20/60 from Biosan (Riga, Latvia) and incubated for 24 h at different temperatures, namely 298.15 K, 303.15 K, 308.15 K and 313.15 K. The temperature adjustment accuracy was 0.1 K and its variability in a 24 h cycle was ±0.5 K. Apart from heating, all of the samples were mixed at 60 rev/min. The increased viscosity and density of DES systems required the samples to be centrifuged at 1000 rev/min for 5 min with the use of EBA 20 centrifuge from Hettich (Tuttlingen, Germany) enabling the undissolved precipitate to remain on the bottom of the test tubes. Next, the samples were filtered using a syringe equipped with a PTFE syringe filer with 0.22 µm pore size. In order to avoid precipitation, the test tubes, syringes and filters were initially heated at a temperature equal to the one of the handled samples. Finally, small amounts of the obtained filtrate were transferred to test tubes filled with methanol and the diluted samples were measured spectrophotometrically. Additionally, for the determination of the mole fractions of edaravone, the density of the samples was measured by weighing a fixed volume of the solution in 10 mL volumetric flasks.
For determining the solubility of edaravone in the studied systems, the samples prepared, as described above, were measured spectrophotometrically using an A360 spectrophotometer from AOE Instruments (Shanghai, China). The spectra were recorded in the 190 nm to 500 nm wavelength range and 1 nm resolution. Methanol was used for the initial calibration of the spectrophotometer and for the dilution of the measured samples, which was conducted in order for the absorbance values to remain below 2.5. The absorbance values at 243 nm were taken into account and based on the calibration curve prepared earlier, the concentration of edaravone in the samples was determined, followed by its mole fractions. The values were averaged from three separate measurements.

SMILES: CC1=NN(c2ccccc2)C(=O)C1 [edaravone, 5-methyl-2-phenyl-4H-pyrazol-3-one]
- xE mole fraction solubility (neat DES choline chloride + glycerol (GLE) 1:2 molar ratio (x*GLE = 1.0), 303.15 K): 1606.43 (±50.52) mole fraction ∙10^4
- xE mole fraction solubility (neat DES choline chloride + glycerol (GLE) 1:2 molar ratio (x*GLE = 1.0), 308.15 K): 2151.57 (±64.56) mole fraction ∙10^4
- xE mole fraction solubility (neat DES choline chloride + glycerol (GLE) 1:2 molar ratio (x*GLE = 1.0), 313.15 K): 2991.42 (±64.1) mole fraction ∙10^4
- xE mole fraction solubility (neat DES choline chloride + glycerol (GLE) 1:4 molar ratio, 298.15 K): 926.44 (±23.62) mole fraction ∙10^4
- xE mole fraction solubility (neat DES choline chloride + glycerol (GLE) 1:4 molar ratio, 303.15 K): 1321.28 (±36.17) mole fraction ∙10^4
- xE mole fraction solubility (neat DES choline chloride + glycerol (GLE) 1:4 molar ratio, 308.15 K): 1861.97 (±40.45) mole fraction ∙10^4
- xE mole fraction solubility (neat DES choline chloride + glycerol (GLE) 1:4 molar ratio, 313.15 K): 2739.72 (±65.05) mole fraction ∙10^4
- solubility at 24 h (neat deep eutectic solvent, 25 °C, organic solvent or mixture, thermodynamic from solid, neat DES choline chloride + ethylene glycol (ETA) 1:1 molar ratio, 298.15 K): 190 mg/mL
- solubility at 24 h (neat deep eutectic solvent, 25 °C, organic solvent or mixture, thermodynamic from solid, neat DES choline chloride + ethylene glycol (ETA) 1:2 molar ratio (x*ETA = 1.0), 298.15 K): 303 mg/mL
- solubility at 24 h (neat deep eutectic solvent, 25 °C, organic solvent or mixture, thermodynamic from solid, neat DES choline chloride + ethylene glycol (ETA) 1:4 molar ratio, 298.15 K): 280 mg/mL
- solubility at 24 h (neat deep eutectic solvent, 25 °C, organic solvent or mixture, thermodynamic from solid, neat DES choline chloride + glycerol (GLE) 1:1 molar ratio, 298.15 K): 138 mg/mL
- solubility at 24 h (neat deep eutectic solvent, 30 °C, organic solvent or mixture, thermodynamic from solid, neat DES choline chloride + ethylene glycol (ETA) 1:1 molar ratio, 303.15 K): 252 mg/mL
- solubility at 24 h (neat deep eutectic solvent, 30 °C, organic solvent or mixture, thermodynamic from solid, neat DES choline chloride + ethylene glycol (ETA) 1:2 molar ratio (x*ETA = 1.0), 303.15 K): 392 mg/mL
- solubility at 24 h (neat deep eutectic solvent, 30 °C, organic solvent or mixture, thermodynamic from solid, neat DES choline chloride + ethylene glycol (ETA) 1:4 molar ratio, 303.15 K): 347 mg/mL
- solubility at 24 h (neat deep eutectic solvent, 35 °C, organic solvent or mixture, thermodynamic from solid, neat DES choline chloride + ethylene glycol (ETA) 1:1 molar ratio, 308.15 K): 360 mg/mL
- solubility at 24 h (neat deep eutectic solvent, 35 °C, organic solvent or mixture, thermodynamic from solid, neat DES choline chloride + ethylene glycol (ETA) 1:2 molar ratio (x*ETA = 1.0), 308.15 K): 499 mg/mL
- solubility at 24 h (neat deep eutectic solvent, 35 °C, organic solvent or mixture, thermodynamic from solid, neat DES choline chloride + ethylene glycol (ETA) 1:4 molar ratio, 308.15 K): 467 mg/mL
- solubility at 24 h (neat deep eutectic solvent, 40 °C, organic solvent or mixture, thermodynamic from solid, neat DES choline chloride + ethylene glycol (ETA) 1:1 molar ratio, 313.15 K): 484 mg/mL
- solubility at 24 h (neat deep eutectic solvent, 40 °C, organic solvent or mixture, thermodynamic from solid, neat DES choline chloride + ethylene glycol (ETA) 1:2 molar ratio (x*ETA = 1.0), 313.15 K): 593 mg/mL
- solubility at 24 h (neat deep eutectic solvent, 40 °C, organic solvent or mixture, thermodynamic from solid, neat DES choline chloride + ethylene glycol (ETA) 1:4 molar ratio, 313.15 K): 602 mg/mL
- xE mole fraction solubility (neat water (x*DES = 0.0), 298.15 K): 1.73(±0.01) mole fraction ∙10^4
- xE mole fraction solubility (neat water (x*DES = 0.0), 303.15 K): 1.78(±0.01) mole fraction ∙10^4
- xE mole fraction solubility (neat water (x*DES = 0.0), 308.15 K): 1.84(±0.02) mole fraction ∙10^4
- xE mole fraction solubility (neat water (x*DES = 0.0), 313.15 K): 1.93(±0.01) mole fraction ∙10^4
- mole fraction solubility ratio, ethylene glycol system vs glycerol system (optimal 1:2 composition, average over temperatures): 1.34 times
- volume of saturated solution containing the recommended 60 mg (optimal aqueous composition ETA): 0.14 mL
- volume of saturated solution containing the recommended 60 mg (optimal aqueous composition GLE): 0.18 mL
- solubility increase in optimal binary composition compared to neat DES (systems with ethylene glycol, x*DES = 0.6, average): 17%
- xE mole fraction solubility (water + ETA (ChCl:EG 1:2), x*ETA = 0.2, 298.15 K): 454.10(±5.48) mole fraction ∙10^4
- xE mole fraction solubility (water + ETA (ChCl:EG 1:2), x*ETA = 0.2, 303.15 K): 574.18(±8.89) mole fraction ∙10^4
- xE mole fraction solubility (water + ETA (ChCl:EG 1:2), x*ETA = 0.2, 308.15 K): 742.26(±18.45) mole fraction ∙10^4
- xE mole fraction solubility (water + ETA (ChCl:EG 1:2), x*ETA = 0.2, 313.15 K): 890.33(±10.84) mole fraction ∙10^4
- xE mole fraction solubility (water + ETA (ChCl:EG 1:2), x*ETA = 0.4, 298.15 K): 1353.93(±5.00) mole fraction ∙10^4
- xE mole fraction solubility (water + ETA (ChCl:EG 1:2), x*ETA = 0.4, 303.15 K): 1819.02(±41.45) mole fraction ∙10^4
- xE mole fraction solubility (water + ETA (ChCl:EG 1:2), x*ETA = 0.4, 308.15 K): 2386.29(±27.09) mole fraction ∙10^4
- xE mole fraction solubility (water + ETA (ChCl:EG 1:2), x*ETA = 0.4, 313.15 K): 2954.32(±49.04) mole fraction ∙10^4
- xE mole fraction solubility (water + ETA (ChCl:EG 1:2), x*ETA = 0.5, 298.15 K): 1754.56(±31.02) mole fraction ∙10^4
- xE mole fraction solubility (water + ETA (ChCl:EG 1:2), x*ETA = 0.5, 303.15 K): 2316.25(±38.27) mole fraction ∙10^4
- xE mole fraction solubility (water + ETA (ChCl:EG 1:2), x*ETA = 0.5, 308.15 K): 3073.71(±53.04) mole fraction ∙10^4
- xE mole fraction solubility (water + ETA (ChCl:EG 1:2), x*ETA = 0.5, 313.15 K): 3822.75(±61.93) mole fraction ∙10^4
- xE mole fraction solubility (water + ETA (ChCl:EG 1:2), x*ETA = 0.6, 298.15 K): 1934.93(±34.18) mole fraction ∙10^4
- xE mole fraction solubility (water + ETA (ChCl:EG 1:2), x*ETA = 0.6, 303.15 K): 2552.36(±52.56) mole fraction ∙10^4
- xE mole fraction solubility (water + ETA (ChCl:EG 1:2), x*ETA = 0.6, 308.15 K): 3306.79(±48.29) mole fraction ∙10^4
- xE mole fraction solubility (water + ETA (ChCl:EG 1:2), x*ETA = 0.6, 313.15 K): 3982.72(±70.26) mole fraction ∙10^4
- xE mole fraction solubility (water + ETA (ChCl:EG 1:2), x*ETA = 0.8, 298.15 K): 1713.96(±31.15) mole fraction ∙10^4
- xE mole fraction solubility (water + ETA (ChCl:EG 1:2), x*ETA = 0.8, 303.15 K): 2241.64(±42.78) mole fraction ∙10^4
- xE mole fraction solubility (water + ETA (ChCl:EG 1:2), x*ETA = 0.8, 308.15 K): 2989.20(±42.33) mole fraction ∙10^4
- xE mole fraction solubility (water + ETA (ChCl:EG 1:2), x*ETA = 0.8, 313.15 K): 3720.80(±28.54) mole fraction ∙10^4
- xE mole fraction solubility (water + GLE (ChCl:GL 1:2), x*GLE = 0.2, 298.15 K): 235.51(±9.67) mole fraction ∙10^4
- xE mole fraction solubility (water + GLE (ChCl:GL 1:2), x*GLE = 0.2, 303.15 K): 309.2(±4.30) mole fraction ∙10^4
- xE mole fraction solubility (water + GLE (ChCl:GL 1:2), x*GLE = 0.2, 308.15 K): 435.07(±4.04) mole fraction ∙10^4
- xE mole fraction solubility (water + GLE (ChCl:GL 1:2), x*GLE = 0.2, 313.15 K): 564.61(±7.05) mole fraction ∙10^4
- xE mole fraction solubility (water + GLE (ChCl:GL 1:2), x*GLE = 0.4, 298.15 K): 743.88(±5.92) mole fraction ∙10^4
- xE mole fraction solubility (water + GLE (ChCl:GL 1:2), x*GLE = 0.4, 303.15 K): 1116.64(±2.70) mole fraction ∙10^4
- xE mole fraction solubility (water + GLE (ChCl:GL 1:2), x*GLE = 0.4, 308.15 K): 1444.07(±14.86) mole fraction ∙10^4
- xE mole fraction solubility (water + GLE (ChCl:GL 1:2), x*GLE = 0.4, 313.15 K): 2014.09(±17.34) mole fraction ∙10^4
- xE mole fraction solubility (water + GLE (ChCl:GL 1:2), x*GLE = 0.5, 298.15 K): 1121.47(±10.85) mole fraction ∙10^4
- xE mole fraction solubility (water + GLE (ChCl:GL 1:2), x*GLE = 0.5, 303.15 K): 1673.69(±20.61) mole fraction ∙10^4
- xE mole fraction solubility (water + GLE (ChCl:GL 1:2), x*GLE = 0.5, 308.15 K): 2236.41(±28.00) mole fraction ∙10^4
- xE mole fraction solubility (water + GLE (ChCl:GL 1:2), x*GLE = 0.5, 313.15 K): 3065.17(±55.82) mole fraction ∙10^4
- xE mole fraction solubility (water + GLE (ChCl:GL 1:2), x*GLE = 0.6, 298.15 K): 1450.22(±11.26) mole fraction ∙10^4
- xE mole fraction solubility (water + GLE (ChCl:GL 1:2), x*GLE = 0.6, 303.15 K): 2089.77(±58.10) mole fraction ∙10^4
- xE mole fraction solubility (water + GLE (ChCl:GL 1:2), x*GLE = 0.6, 308.15 K): 2723.73(±61.99) mole fraction ∙10^4
- xE mole fraction solubility (water + GLE (ChCl:GL 1:2), x*GLE = 0.6, 313.15 K): 3567.08(±42.51) mole fraction ∙10^4
- xE mole fraction solubility (water + GLE (ChCl:GL 1:2), x*GLE = 0.8, 298.15 K): 1305.70(±26.15) mole fraction ∙10^4
- xE mole fraction solubility (water + GLE (ChCl:GL 1:2), x*GLE = 0.8, 303.15 K): 1852.98(±39.43) mole fraction ∙10^4
- xE mole fraction solubility (water + GLE (ChCl:GL 1:2), x*GLE = 0.8, 308.15 K): 2525.56(±24.65) mole fraction ∙10^4
- xE mole fraction solubility (water + GLE (ChCl:GL 1:2), x*GLE = 0.8, 313.15 K): 3420.95(±31.16) mole fraction ∙10^4
- solubility at 24 h (water, neat water (x*DES = 0.0), 298.15 K): 1.72 mg/mL (≈ 9.87 mM)
- solubility at 24 h (water, neat water (x*DES = 0.0), 303.15 K): 1.79 mg/mL (≈ 10.3 mM)
- solubility at 24 h (water, neat water (x*DES = 0.0), 308.15 K): 1.87 mg/mL (≈ 10.7 mM)
- solubility at 24 h (water, neat water (x*DES = 0.0), 313.15 K): 1.96 mg/mL (≈ 11.3 mM)
